This passage reports EC50 results from US9499550B2 (BRISTOL-MYERS SQUIBB COMPANY, priority 2012, dated 2016).

SMILES strings stand for the structures. Read-outs that look alike come from different tables or passages of the source.

The subject of assay [1] is HCV genotype 1b (Con1) replicon in HUH-7 cells. Kind of assay: HCV replicon luciferase reporter assay, genotype 1b. The format is cell-based. Conditions: Hepatitis C virus, Huh-7, 72 h, HCV genotype 1b replicon luciferase, 3 days incubation. Summed up:
(§1)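 Replicon inhibition for both genotypes was measured as Renilla luciferase signal (EnduRen, 7.5 μM final, 2 h) after 3-day, 37° C exposure of replicon-bearing HUH-7 cells in 4% FCS DMEM, 0.5% DMSO. The 1b construct carries S1179I; the 1a H77 construct carries P1496L and S2204I. Twenty-point, 3-fold dilutions were fitted four-parametrically for EC50, and CC50 was taken from multiplexed Cell Titer-Blue.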

The test system of assay [2] is HCV genotype 1a (H77 strain) replicon in HUH-7 cells. The assay is described as follows: HCV replicon luciferase reporter assay, genotype 1a. It counts as cell-based. Conditions: Hepatitis C virus, Huh-7, 72 h, HCV genotype 1a replicon luciferase, 3 days incubation. A digest of the protocol: as §1

A word on the EC50: it is the concentration at which the effect is half-maximal. Take `CCn1nc(O[C@@H]2C[C@H]3C(=O)N[C@]4(C(=O)NS(=O)(=O)C5(C)CC5)C[C@H]4/C=C\CC[C@H](C)C[C@@H](C)[C@H](NC(=O)OC(C)(C)C(F)(F)F)C(=O)N3C2)c2ccccc2c1=O` [Compound 5052, 1,1,1-trifluoro-2-methylpropan-2-yl((2R,6S,7R,9S,13aS,14aR,16aS,Z)-2-((3-ethyl-4-oxo-3,4-dihydrophthalazin-1-yl)oxy)-7,9-dimethyl-14a-(((1-methylcyclopropyl)sulfonyl)carbamoyl)-5,16-dioxo-1,2,3,5,6,7,8,9,10,11,13a,14,14a,15,16,16a-hexadecahydrocyclopropa[e]pyrrolo[1,2-a][1,4]diazacyclopentadecin-6-yl)carbamate]: the EC50 is 0.0762 µM in assay [1] (read-out: LE_1b (EC50)); 0.00482 to 0.103 µM in assay [1] (read-out: LE_1b (EC50, range)); 0.33 µM in assay [2] (read-out: LE_1a (EC50)); above 0.0874 µM in assay [2] (read-out: LE_1a (EC50, range)).

As to `CCn1nc(O[C@@H]2C[C@H]3C(=O)N[C@]4(C(=O)NS(=O)(=O)C5(C)CC5)C[C@H]4/C=C\CC[C@@H](C)C[C@@H](C)[C@H](NC(=O)OC(C)(C)C(F)(F)F)C(=O)N3C2)c2ccccc2c1=O` [Compound 5053, 1,1,1-trifluoro-2-methylpropan-2-yl((2R,6S,7R,9R,13aS,14aR,16aS,Z)-2-((3-ethyl-4-oxo-3,4-dihydrophthalazin-1-yl)oxy)-7,9-dimethyl-14a-(((1-methylcyclopropyl)sulfonyl)carbamoyl)-5,16-dioxo-1,2,3,5,6,7,8,9,10,11,13a,14,14a,15,16,16a-hexadecahydrocyclopropa[e]pyrrolo[1,2-a][1,4]diazacyclopentadecin-6-yl)carbamate], the half-maximal effective concentration (EC50) in assay [1] (read-out: LE_1b (EC50, range)) was below 0.00546 µM; in assay [2] (read-out: LE_1a (EC50, range)) it was 0.00482 to 0.103 µM.

Regarding `[2H]C([2H])([2H])C(OC(=O)N[C@@H]1C(=O)N2C[C@H](Oc3nn(CC)c(=O)c4ccccc34)C[C@H]2C(=O)N[C@]2(C(=O)NS(=O)(=O)C3(C)CC3)C[C@H]2/C=C\CC[C@H](C)C[C@H]1C)(C([2H])([2H])[2H])C(F)(F)F` [Compound 5054], the EC50 was above 0.0874 µM in assay [1] (read-out: LE_1b (EC50, range)) and above 0.0874 µM in assay [2] (read-out: LE_1a (EC50, range)).

With `[2H]C([2H])([2H])C(OC(=O)N[C@@H]1C(=O)N2C[C@H](Oc3nn(CC)c(=O)c4ccccc34)C[C@H]2C(=O)N[C@]2(C(=O)NS(=O)(=O)C3(C)CC3)C[C@H]2/C=C\CC[C@@H](C)C[C@H]1C)(C([2H])([2H])[2H])C(F)(F)F` [Compound 5055], the EC50 in assay [1] (read-out: LE_1b (EC50, range)) was below 0.00546 µM; in assay [2] (read-out: LE_1a (EC50, range)), 0.00482 to 0.103 µM.

Turning to `CCn1nc(O[C@@H]2C[C@H]3C(=O)N[C@]4(C(=O)NS(=O)(=O)C5(C)CC5)C[C@H]4/C=C\CC[C@H](C)C[C@@H](C)[C@H](NC(=O)O[C@@H]4C[C@@H]5C[C@@H]5C4)C(=O)N3C2)c2ccccc2c1=O` [Compound 5056, (1R,3r,5S)-bicyclo[3.1.0]hexan-3-yl((2R,6S,7R,9S,13aS,14aR,16aS,Z)-2-((3-ethyl-4-oxo-3,4-dihydrophthalazin-1-yl)oxy)-7,9-dimethyl-14a-(((1-methylcyclopropyl)sulfonyl)carbamoyl)-5,16-dioxo-1,2,3,5,6,7,8,9,10,11,13a,14,14a,15,16,16a-hexadecahydrocyclopropa[e]pyrrolo[1,2-a][1,4]diazacyclopentadecin-6-yl)carbamate], the EC50 in assay [1] (read-out: LE_1b (EC50)) was 0.061 µM; in assay [1] (read-out: LE_1b (EC50, range)), 0.00482 to 0.103 µM; in assay [2] (read-out: LE_1a (EC50)) it was 0.256 µM; in assay [2] (read-out: LE_1a (EC50, range)), above 0.0874 µM.

With `CCn1nc(O[C@@H]2C[C@H]3C(=O)N[C@]4(C(=O)NS(=O)(=O)C5(C)CC5)C[C@H]4/C=C\CC[C@@H](C)C[C@@H](C)[C@H](NC(=O)O[C@@H]4C[C@@H]5C[C@@H]5C4)C(=O)N3C2)c2ccccc2c1=O` [Compound 5057, (1R,3r,5S)-bicyclo[3.1.0]hexan-3-yl((2R,6S,7R,9R,13aS,14aR,16aS,Z)-2-((3-ethyl-4-oxo-3,4-dihydrophthalazin-1-yl)oxy)-7,9-dimethyl-14a-(((1-methylcyclopropyl)sulfonyl)carbamoyl)-5,16-dioxo-1,2,3,5,6,7,8,9,10,11,13a,14,14a,15,16,16a-hexadecahydrocyclopropa[e]pyrrolo[1,2-a][1,4]diazacyclopentadecin-6-yl)carbamate], the concentration giving a half-maximal response (EC50) in assay [1] (read-out: LE_1b (EC50, range)) is below 0.00546 µM; in assay [2] (read-out: LE_1a (EC50, range)), below 0.00546 µM.

For the molecule `CCn1nc(O[C@@H]2C[C@H]3C(=O)N[C@]4(C(=O)NS(=O)(=O)C5(C)CC5)C[C@H]4/C=C\CC[C@H](C)C[C@@H](C)[C@H](NC(=O)NC(C)(C)C)C(=O)N3C2)c2ccccc2c1=O` [Compound 5058, (2R,6S,7R,9S,13aS,14aR,16aS,Z)-6-(3-(tert-butyl)ureido)-2-((3-ethyl-4-oxo-3,4-dihydrophthalazin-1-yl)oxy)-7,9-dimethyl-N-((1-methylcyclopropyl)sulfonyl)-5,16-dioxo-1,2,3,5,6,7,8,9,10,11,13a,14,14a,15,16,16a-hexadecahydrocyclopropa[e]pyrrolo[1,2-a][1,4]diazacyclopentadecine-14a-carboxamide], the EC50 in assay [1] (read-out: LE_1b (EC50, range)) is above 0.0874 µM; in assay [2] (read-out: LE_1a (EC50, range)), above 0.0874 µM.

As to `CCn1nc(O[C@@H]2C[C@H]3C(=O)N[C@]4(C(=O)NS(=O)(=O)C5(C)CC5)C[C@H]4/C=C\CC[C@@H](C)C[C@@H](C)[C@H](NC(=O)NC(C)(C)C)C(=O)N3C2)c2ccccc2c1=O` [Compound 5059, (2R,6S,7R,9R,13aS,14aR,16aS,Z)-6-(3-(tert-butyl)ureido)-2-((3-ethyl-4-oxo-3,4-dihydrophthalazin-1-yl)oxy)-7,9-dimethyl-N-((1-methylcyclopropyl)sulfonyl)-5,16-dioxo-1,2,3,5,6,7,8,9,10,11,13a,14,14a,15,16,16a-hexadecahydrocyclopropa[e]pyrrolo[1,2-a][1,4]diazacyclopentadecine-14a-carboxamide], the EC50 fell in the range of 0.00482 to 0.103 µM in assay [1] (read-out: LE_1b (EC50, range)) and 0.00482 to 0.103 µM in assay [2] (read-out: LE_1a (EC50, range)).

For the molecule `CCn1nc(O[C@@H]2C[C@H]3C(=O)N[C@]4(C(=O)NS(=O)(=O)C5(C)CC5)C[C@H]4/C=C\CC[C@H](C)C[C@@H](C)[C@H](NC(=O)c4ccc(N(C)C)cc4)C(=O)N3C2)c2ccccc2c1=O` [Compound 5060, (2R,6S,7R,9S,13aS,14aR,16aS,Z)-6-(4-(dimethylamino)benzamido)-2-((3-ethyl-4-oxo-3,4-dihydrophthalazin-1-yl)oxy)-7,9-dimethyl-N-((1-methylcyclopropyl)sulfonyl)-5,16-dioxo-1,2,3,5,6,7,8,9,10,11,13a,14,14a,15,16,16a-hexadecahydrocyclopropa[e]pyrrolo[1,2-a][1,4]diazacyclopentadecine-14a-carboxamide], the 50% effective concentration (EC50) in assay [1] (read-out: LE_1b (EC50)) is 0.95 µM; in assay [1] (read-out: LE_1b (EC50, range)) it was above 0.0874 µM; in assay [2] (read-out: LE_1a (EC50)), at least 1 µM; in assay [2] (read-out: LE_1a (EC50, range)), above 0.0874 µM.

For the molecule `CCn1nc(O[C@@H]2C[C@H]3C(=O)N[C@]4(C(=O)NS(=O)(=O)C5(C)CC5)C[C@H]4/C=C\CC[C@@H](C)C[C@@H](C)[C@H](NC(=O)c4ccc(N(C)C)cc4)C(=O)N3C2)c2ccccc2c1=O` [Compound 5061, (2R,6S,7R,9R,13aS,14aR,16aS,Z)-6-(4-(dimethylamino)benzamido)-2-((3-ethyl-4-oxo-3,4-dihydrophthalazin-1-yl)oxy)-7,9-dimethyl-N-((1-methylcyclopropyl)sulfonyl)-5,16-dioxo-1,2,3,5,6,7,8,9,10,11,13a,14,14a,15,16,16a-hexadecahydrocyclopropa[e]pyrrolo[1,2-a][1,4]diazacyclopentadecine-14a-carboxamide], the EC50 in assay [1] (read-out: LE_1b (EC50, range)) fell in the range of 0.00482 to 0.103 µM; in assay [2] (read-out: LE_1a (EC50, range)), 0.00482 to 0.103 µM.

Consider `CCn1nc(O[C@@H]2C[C@H]3C(=O)N[C@]4(C(=O)NS(=O)(=O)C5(C)CC5)C[C@H]4/C=C\CC[C@H](C)C[C@@H](C)[C@H](NC(=O)C(=O)N(C)C)C(=O)N3C2)c2ccccc2c1=O` [Compound 5062, N1-((2R,6S,7R,9S,13aS,14aR,16aS,Z)-2-((3-ethyl-4-oxo-3,4-dihydrophthalazin-1-yl)oxy)-7,9-dimethyl-14a-(((1-methylcyclopropyl)sulfonyl)carbamoyl)-5,16-dioxo-1,2,3,5,6,7,8,9,10,11,13a,14,14a,15,16,16a-hexadecahydrocyclopropa[e]pyrrolo[1,2-a][1,4]diazacyclopentadecin-6-yl)-N2,N2-dimethyloxalamide], for which the half-maximal effective concentration (EC50) was 1 µM in assay [1] (read-out: LE_1b (EC50)); above 0.0874 µM in assay [1] (read-out: LE_1b (EC50, range)); at least 1 µM in assay [2] (read-out: LE_1a (EC50)); above 0.0874 µM in assay [2] (read-out: LE_1a (EC50, range)).

As to `CCn1nc(O[C@@H]2C[C@H]3C(=O)N[C@]4(C(=O)NS(=O)(=O)C5(C)CC5)C[C@H]4/C=C\CC[C@@H](C)C[C@@H](C)[C@H](NC(=O)C(=O)N(C)C)C(=O)N3C2)c2ccccc2c1=O` [Compound 5063, N1-((2R,6S,7R,9R,13aS,14aR,16aS,Z)-2-((3-ethyl-4-oxo-3,4-dihydrophthalazin-1-yl)oxy)-7,9-dimethyl-14a-(((1-methylcyclopropyl)sulfonyl)carbamoyl)-5,16-dioxo-1,2,3,5,6,7,8,9,10,11,13a,14,14a,15,16,16a-hexadecahydrocyclopropa[e]pyrrolo[1,2-a][1,4]diazacyclopentadecin-6-yl)-N2,N2-dimethyloxalamide], the EC50 was 0.479 µM in assay [1] (read-out: LE_1b (EC50)); above 0.0874 µM in assay [1] (read-out: LE_1b (EC50, range)); at least 1 µM in assay [2] (read-out: LE_1a (EC50)); above 0.0874 µM in assay [2] (read-out: LE_1a (EC50, range)).

`CCn1nc(O[C@@H]2C[C@H]3C(=O)N[C@]4(C(=O)NS(=O)(=O)C5(C)CC5)C[C@H]4/C=C\CC[C@H](C)C[C@@H](C)[C@H](NC(=O)OC(C)(C)C)C(=O)N3C2)c2ccccc2c1=O` [Compound 5064, tert-butyl ((2R,6S,7R,9S,13aS,14aR,16aS,Z)-2-((3-ethyl-4-oxo-3,4-dihydrophthalazin-1-yl)oxy)-7,9-dimethyl-14a-(((1-methylcyclopropyl)sulfonyl)carbamoyl)-5,16-dioxo-1,2,3,5,6,7,8,9,10,11,13a,14,14a,15,16,16a-hexadecahydrocyclopropa[e]pyrrolo[1,2-a][1,4]diazacyclopentadecin-6-yl)carbamate]: the EC50 in assay [1] (read-out: LE_1b (EC50, range)) was 0.00482 to 0.103 µM; in assay [2] (read-out: LE_1a (EC50, range)), above 0.0874 µM.
